In US20090312364A1, “NOVEL CHROMEN-2-ONE DERIVATIVES AND THEIR USE AS MONOAMINE NEUROT[…]-UPTAKE INHIBITORS” (NeuroSearch A/S, priority 2006, published 2009):
Where a name gives a salt, the structure may show the parent alone.

Tests used:
Type in all cases: biochemical
[1] = target: T1, serotonine (5-HT) reuptake in synaptosomes (Rattus norvegicus, UniProt P31652); experiment: In vitro inhibition of 5-HT reuptake in synaptosomes; details: 3H-5-HT, as described in WO 97/16451, read-out: 5-HT-uptake IC50
T1 construct: in synaptosomes as described in WO 97/16451; from tissue
Protocol: (§1) A number of compounds were tested for their ability to inhibit the reuptake of the monoamine neurotransmitters dopamine (DA), noradrenaline (NA) and serotonine (5-HT) in synaptosomes as described in WO 97/16451.
(§2) The test values are given as IC50 (the concentration (μM) of the test substance which inhibits the specific binding of ^3H-DA, ^3H-NA, or ^3H-5-HT by 50%).

[2] = target: T2, dopamine (DA) reuptake in synaptosomes (Rattus norvegicus, UniProt P23977); experiment: In vitro inhibition of DA reuptake in synaptosomes; details: 3H-DA, as described in WO 97/16451, read-out: DA-uptake IC50
T2 construct: in synaptosomes as described in WO 97/16451; from tissue
Protocol: as §1, §2

[3] = target: T3, noradrenaline (NA) reuptake in synaptosomes (Rattus norvegicus, UniProt Q9WTR4); experiment: In vitro inhibition of NA reuptake in synaptosomes; details: 3H-NA, as described in WO 97/16451, read-out: NA-uptake IC50
T3 construct: in synaptosomes as described in WO 97/16451; from tissue
Protocol: as §1, §2

T1 sequence (P31652 whole entry): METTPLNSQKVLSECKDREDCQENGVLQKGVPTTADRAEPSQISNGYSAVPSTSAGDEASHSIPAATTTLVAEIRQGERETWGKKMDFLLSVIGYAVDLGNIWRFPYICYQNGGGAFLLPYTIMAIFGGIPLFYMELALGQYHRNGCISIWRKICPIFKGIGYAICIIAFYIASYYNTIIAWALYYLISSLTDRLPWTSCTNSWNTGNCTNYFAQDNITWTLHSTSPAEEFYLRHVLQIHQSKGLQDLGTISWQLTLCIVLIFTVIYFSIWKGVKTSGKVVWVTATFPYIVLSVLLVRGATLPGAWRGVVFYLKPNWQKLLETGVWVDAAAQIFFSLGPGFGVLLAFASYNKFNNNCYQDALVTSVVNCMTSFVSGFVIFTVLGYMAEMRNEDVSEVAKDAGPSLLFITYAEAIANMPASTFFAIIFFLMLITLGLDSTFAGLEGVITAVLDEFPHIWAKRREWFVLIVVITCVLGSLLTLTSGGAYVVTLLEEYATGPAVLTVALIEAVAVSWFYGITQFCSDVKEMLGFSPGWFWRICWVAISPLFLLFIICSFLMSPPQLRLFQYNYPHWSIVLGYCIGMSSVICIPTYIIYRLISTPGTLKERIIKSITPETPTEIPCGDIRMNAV
T2 sequence (P23977 whole entry): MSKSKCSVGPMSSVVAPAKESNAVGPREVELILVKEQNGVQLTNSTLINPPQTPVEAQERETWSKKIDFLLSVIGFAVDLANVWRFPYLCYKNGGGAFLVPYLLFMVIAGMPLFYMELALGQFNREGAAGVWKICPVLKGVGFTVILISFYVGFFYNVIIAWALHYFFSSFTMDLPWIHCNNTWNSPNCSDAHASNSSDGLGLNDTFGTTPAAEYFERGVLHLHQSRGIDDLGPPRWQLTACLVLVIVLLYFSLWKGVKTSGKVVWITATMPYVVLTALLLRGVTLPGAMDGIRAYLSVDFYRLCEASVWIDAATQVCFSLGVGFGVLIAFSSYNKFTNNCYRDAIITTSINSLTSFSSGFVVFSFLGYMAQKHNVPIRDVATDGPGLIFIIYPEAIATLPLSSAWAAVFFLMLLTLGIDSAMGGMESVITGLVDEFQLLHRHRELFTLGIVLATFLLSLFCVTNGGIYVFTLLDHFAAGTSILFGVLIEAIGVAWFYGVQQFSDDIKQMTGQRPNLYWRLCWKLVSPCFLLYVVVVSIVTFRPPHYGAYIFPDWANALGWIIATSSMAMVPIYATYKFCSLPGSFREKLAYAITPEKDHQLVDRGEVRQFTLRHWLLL
T3 sequence (Q9WTR4 1-597): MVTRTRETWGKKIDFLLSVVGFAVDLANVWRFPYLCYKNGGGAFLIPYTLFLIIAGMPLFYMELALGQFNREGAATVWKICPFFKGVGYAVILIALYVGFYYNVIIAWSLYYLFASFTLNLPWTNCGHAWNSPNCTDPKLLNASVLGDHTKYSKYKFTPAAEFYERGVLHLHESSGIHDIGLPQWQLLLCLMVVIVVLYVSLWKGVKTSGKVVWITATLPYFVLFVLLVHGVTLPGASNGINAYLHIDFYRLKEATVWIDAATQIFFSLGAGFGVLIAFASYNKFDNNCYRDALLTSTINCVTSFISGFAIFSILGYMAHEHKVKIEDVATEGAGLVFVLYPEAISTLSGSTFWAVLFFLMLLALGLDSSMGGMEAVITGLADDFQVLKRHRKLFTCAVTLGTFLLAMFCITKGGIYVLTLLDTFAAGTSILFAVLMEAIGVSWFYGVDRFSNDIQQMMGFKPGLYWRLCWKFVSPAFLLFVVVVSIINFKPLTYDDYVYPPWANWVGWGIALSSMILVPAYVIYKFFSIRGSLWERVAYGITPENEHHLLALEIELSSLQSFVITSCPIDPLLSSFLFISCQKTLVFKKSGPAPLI

| SMILES | IC50 [1] | IC50 [2] | IC50 [3] |
| --- | --- | --- | --- |
| O=c1oc2cc(O[C@@H]3C[C@H]4CC[C@@H](C3)N4)ccc2cc1-c1ccccc1 [1st Compound of Example 2, exo-7-[(1S,3S,5R)-(8-Aza-bicyclo[3.2.1]oct-3-yl)oxy]-3-phenyl-chromen-2-one hydrochloric acid salt] | 6 nM | 48 nM | 19 nM |
| O=c1cc(-c2ccccc2)c2ccc(O[C@@H]3C[C@H]4CC[C@@H](C3)N4)cc2o1 [4th Compound of Example 2, exo-7-[(1S,3S,5R)-(8-Aza-bicyclo[3.2.1]oct-3-yl)oxy]-4-phenyl-chromen-2-one hydrochloric acid salt] | 29 nM | > 1000 nM | > 1000 nM |
| O=c1oc2cc(O[C@@H]3C[C@H]4CC[C@@H](C3)N4)ccc2cc1-c1cccc(F)c1 [6th Compound of Example 2, exo-7-[(1S,3S,5R)-(8-Aza-bicyclo[3.2.1]oct-3-yl)oxy]-3-(3-fluoro-phenyl)-chromen-2-one hydrochloric acid salt] | 5.8 nM | 28 nM | 26 nM |
